Patent US11629146B2, “Substituted [1,2,4]triazolo[4,3-a]pyrazines as modulators of sodium channel activity” (Praxis Precision Medicines, Inc., priority 2016, dated 2023)

Legend:
[1] = target: CYP1A2 (Homo sapiens (Human), UniProt P05177); assay: CYP1A2 inhibition in human liver microsomes; type: in vitro ADME; conditions: pooled human liver microsomes, marker substrate Phenacetin
Protocol: The specific marker metabolites are measured with LC/MS/MS. The remaining enzymatic activities and inhibitory potency IC50 are determined. Microsomes are removed out of the −80° C. freezer to thaw on ice and 20 μL of the substrates solution added to the corresponding wells. […] Then 158 μL of the HLM working solution was added to all wells of the incubation plate. The plate was pre-warmed for about 10 min using a 37° C. water bath. Then 20 μL of the NADPH cofactor solution was added to all incubation wells, mixed and incubated for 10 minutes at 37° C. water bath. The reaction is terminated by adding 400 μL cold stop solution (200 ng/mL Tolbutamide and 200 ng/mL Labetalol in ACN). […] Finally 200 μL of the supernatant was transferred to 100 μL HPLC water, shaken for 10 min and analyzed by LC/MS/MS. […] Equation for three parameters logistic sigmoidal curve: […]

[2] = target: human NaV1.6 (hNaV1.6) (Homo sapiens (Human), UniProt Q9UQD0); assay: INaL inhibition at hNaV1.6, PatchXpress electrophysiology; type: cell-based; conditions: HEK293; 1 μM; HEK-293 cells expressing hNaV1.6; late current evoked by 300 nM ATX-II; read-out: INaL v1.6 (1 μM, % Inhibition)
Sequence of human NaV1.6 (hNaV1.6) (Q9UQD0 whole entry): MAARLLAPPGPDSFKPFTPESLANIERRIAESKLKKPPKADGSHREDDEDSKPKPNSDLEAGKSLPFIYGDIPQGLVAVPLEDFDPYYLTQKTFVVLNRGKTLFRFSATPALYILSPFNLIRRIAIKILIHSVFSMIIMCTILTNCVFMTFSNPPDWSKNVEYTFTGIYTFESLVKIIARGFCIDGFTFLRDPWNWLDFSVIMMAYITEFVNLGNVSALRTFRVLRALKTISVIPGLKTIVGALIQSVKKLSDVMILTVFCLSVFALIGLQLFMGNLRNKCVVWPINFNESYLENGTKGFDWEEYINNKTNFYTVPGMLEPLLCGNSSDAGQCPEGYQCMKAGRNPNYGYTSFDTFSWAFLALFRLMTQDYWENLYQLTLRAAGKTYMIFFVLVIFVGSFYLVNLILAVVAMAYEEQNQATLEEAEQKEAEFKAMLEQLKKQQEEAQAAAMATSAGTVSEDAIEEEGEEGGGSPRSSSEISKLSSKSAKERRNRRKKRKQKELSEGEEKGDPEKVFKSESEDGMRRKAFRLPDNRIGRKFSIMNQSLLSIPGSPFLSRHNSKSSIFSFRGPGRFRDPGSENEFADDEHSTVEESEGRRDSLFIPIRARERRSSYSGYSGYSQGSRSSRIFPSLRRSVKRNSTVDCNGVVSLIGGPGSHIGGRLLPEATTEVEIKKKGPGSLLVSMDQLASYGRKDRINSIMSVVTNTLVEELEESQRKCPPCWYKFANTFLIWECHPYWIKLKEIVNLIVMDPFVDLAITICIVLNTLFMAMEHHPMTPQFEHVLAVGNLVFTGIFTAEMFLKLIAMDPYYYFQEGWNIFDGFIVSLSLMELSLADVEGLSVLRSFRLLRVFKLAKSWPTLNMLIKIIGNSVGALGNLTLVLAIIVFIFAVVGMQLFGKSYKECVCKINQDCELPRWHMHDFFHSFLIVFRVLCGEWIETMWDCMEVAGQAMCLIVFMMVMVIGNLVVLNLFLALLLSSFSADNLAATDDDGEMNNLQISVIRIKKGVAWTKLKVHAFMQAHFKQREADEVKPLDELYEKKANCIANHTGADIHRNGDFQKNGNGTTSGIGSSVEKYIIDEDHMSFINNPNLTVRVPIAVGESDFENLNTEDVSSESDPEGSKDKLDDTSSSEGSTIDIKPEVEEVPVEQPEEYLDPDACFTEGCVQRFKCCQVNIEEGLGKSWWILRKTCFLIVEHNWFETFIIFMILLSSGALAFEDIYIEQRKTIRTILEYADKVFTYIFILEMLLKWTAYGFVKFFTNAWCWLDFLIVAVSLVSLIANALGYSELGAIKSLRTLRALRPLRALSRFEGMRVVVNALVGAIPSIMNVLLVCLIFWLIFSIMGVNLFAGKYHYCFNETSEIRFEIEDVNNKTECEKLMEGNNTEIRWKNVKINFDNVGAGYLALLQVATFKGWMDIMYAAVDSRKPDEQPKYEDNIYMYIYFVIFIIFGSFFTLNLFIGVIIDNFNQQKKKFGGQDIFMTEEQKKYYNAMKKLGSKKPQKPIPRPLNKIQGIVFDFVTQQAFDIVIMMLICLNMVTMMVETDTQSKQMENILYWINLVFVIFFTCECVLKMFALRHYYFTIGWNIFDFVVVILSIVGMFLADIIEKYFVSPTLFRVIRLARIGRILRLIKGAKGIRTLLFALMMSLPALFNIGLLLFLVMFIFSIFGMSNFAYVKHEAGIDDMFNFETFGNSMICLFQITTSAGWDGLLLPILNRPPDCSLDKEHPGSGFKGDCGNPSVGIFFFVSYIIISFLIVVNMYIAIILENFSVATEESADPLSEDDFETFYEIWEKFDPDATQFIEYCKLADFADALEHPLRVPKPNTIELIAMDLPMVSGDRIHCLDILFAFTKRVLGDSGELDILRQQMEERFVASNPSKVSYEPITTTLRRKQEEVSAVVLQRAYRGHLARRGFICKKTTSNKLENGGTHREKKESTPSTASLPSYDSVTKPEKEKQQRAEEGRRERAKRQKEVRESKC
Procedure, shortened: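 Recombinant hNaV1.6 in HEK-293 cells recorded by automated patch clamp, with late current evoked by 300 nM ATX-II. INaL taken as mean current over the final 20 ms of the test pulse. Steady-state inhibition expressed as […].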

[3] = target: human NaV1.5 late sodium current (INaL) (Homo sapiens (Human), UniProt Q14524); assay: INaL inhibition at hNaV1.5, PatchXpress electrophysiology; type: cell-based; conditions: HEK-293 cells expressing recombinant human NaV1.5, HEK-293 cells expressing hNaV1.5, late current evoked by 300 nM ATX-II, read-out: INaL v1.5 (1 μM, % Inhibition)
Sequence of human NaV1.5 late sodium current (INaL) (Q14524 whole entry): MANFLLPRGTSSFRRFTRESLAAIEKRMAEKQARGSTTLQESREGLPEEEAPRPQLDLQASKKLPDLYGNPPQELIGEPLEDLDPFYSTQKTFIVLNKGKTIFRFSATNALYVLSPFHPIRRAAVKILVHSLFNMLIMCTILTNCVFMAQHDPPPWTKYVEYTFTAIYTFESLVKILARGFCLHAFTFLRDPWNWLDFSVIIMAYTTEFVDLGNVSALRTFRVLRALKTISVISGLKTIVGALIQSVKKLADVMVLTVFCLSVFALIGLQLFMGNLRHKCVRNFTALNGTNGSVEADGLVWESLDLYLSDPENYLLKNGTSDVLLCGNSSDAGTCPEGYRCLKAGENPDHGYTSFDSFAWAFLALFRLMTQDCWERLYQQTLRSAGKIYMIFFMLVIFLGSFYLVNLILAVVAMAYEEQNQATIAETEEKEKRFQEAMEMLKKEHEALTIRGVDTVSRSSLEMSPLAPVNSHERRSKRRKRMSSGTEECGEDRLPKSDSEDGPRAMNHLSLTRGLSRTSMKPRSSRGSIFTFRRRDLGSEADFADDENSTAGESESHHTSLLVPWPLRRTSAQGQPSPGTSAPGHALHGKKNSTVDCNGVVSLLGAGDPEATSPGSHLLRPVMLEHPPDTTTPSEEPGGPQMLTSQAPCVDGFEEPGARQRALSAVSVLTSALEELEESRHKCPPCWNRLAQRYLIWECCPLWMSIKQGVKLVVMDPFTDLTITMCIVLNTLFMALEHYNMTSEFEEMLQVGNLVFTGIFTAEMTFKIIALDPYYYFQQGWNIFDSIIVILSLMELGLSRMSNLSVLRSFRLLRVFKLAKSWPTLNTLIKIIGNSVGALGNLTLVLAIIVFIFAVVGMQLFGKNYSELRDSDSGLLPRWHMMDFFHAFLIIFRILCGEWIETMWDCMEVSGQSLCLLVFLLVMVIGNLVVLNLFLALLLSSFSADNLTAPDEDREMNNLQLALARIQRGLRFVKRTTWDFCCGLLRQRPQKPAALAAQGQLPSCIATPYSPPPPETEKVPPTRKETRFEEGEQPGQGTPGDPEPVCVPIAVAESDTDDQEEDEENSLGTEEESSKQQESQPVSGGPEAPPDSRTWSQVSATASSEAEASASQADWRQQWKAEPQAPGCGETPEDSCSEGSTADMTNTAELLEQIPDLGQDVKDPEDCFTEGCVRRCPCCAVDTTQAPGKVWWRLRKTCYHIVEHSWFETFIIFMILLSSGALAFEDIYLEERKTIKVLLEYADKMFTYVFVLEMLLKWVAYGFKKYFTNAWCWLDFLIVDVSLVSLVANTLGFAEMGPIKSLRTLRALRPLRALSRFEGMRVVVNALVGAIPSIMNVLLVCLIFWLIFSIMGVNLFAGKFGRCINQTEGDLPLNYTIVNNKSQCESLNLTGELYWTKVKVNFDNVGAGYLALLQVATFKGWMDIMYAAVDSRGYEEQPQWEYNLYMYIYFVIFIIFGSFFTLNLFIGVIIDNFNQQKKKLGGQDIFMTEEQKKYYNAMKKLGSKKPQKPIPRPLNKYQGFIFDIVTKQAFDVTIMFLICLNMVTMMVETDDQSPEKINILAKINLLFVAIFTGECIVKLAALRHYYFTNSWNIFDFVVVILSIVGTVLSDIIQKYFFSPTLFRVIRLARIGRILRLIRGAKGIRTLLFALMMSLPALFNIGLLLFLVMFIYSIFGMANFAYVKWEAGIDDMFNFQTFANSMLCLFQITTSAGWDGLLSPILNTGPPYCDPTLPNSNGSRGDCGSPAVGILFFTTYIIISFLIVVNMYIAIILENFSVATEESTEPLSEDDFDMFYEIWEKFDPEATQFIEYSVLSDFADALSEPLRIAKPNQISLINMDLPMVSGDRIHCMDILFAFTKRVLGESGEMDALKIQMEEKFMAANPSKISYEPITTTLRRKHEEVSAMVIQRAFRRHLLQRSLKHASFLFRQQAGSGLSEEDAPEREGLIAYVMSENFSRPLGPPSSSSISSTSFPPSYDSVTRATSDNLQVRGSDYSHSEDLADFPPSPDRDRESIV

[4] = PK rat clearance experiment; type: in vivo; conditions: male Sprague-Dawley rats, single intravenous bolus 0.5 mg/kg, plasma
Protocol: The IV dosing solution was prepared freshly on the dosing day. Test article (0.5 mg/kg) was prepared in a vehicle, for example, consisting of 5% DMSO/5% solutol/90% water. The concentrations of test article in all dosing solutions were determined by HPLC/UV. Three male Sprague-Dawley rats were used in this study. The animals were confirmed healthy before being assigned to the study. Each animal was given a unique identification number which was marked on the tail or the ear, and written on the cage card. All animals were fasted overnight before dosing and the food was returned at 4 hours post dosing. Water was provided to all animals ad libitum during the fasting period. Animals were weighed prior to dose administration on the day of dosing for calculating the actual dose volume. The body weights were in the range from 212 g to 223 g for males. All animals received test article by single intravenous bolus administration at 0.5 mg/kg. Approximately 0.2 mL blood was collected at each time point via jugular vein from each study animal. […] All blood samples were transferred into pre-labeled plastic micro centrifuge tubes and mixed with the pre-loaded anti-coagulant K2EDTA (5 μL, 0.5 M). Plasma samples were then prepared by centrifuging the blood samples. All plasma samples were then quickly frozen over dry ice and kept at −60° C. or lower until LC/MS/MS analysis. The concentrations of test article in plasma were determined by using a quantitative bioanalytical LC/MS/MS method. The lower limit of quantitation (LLOQ) for test article in plasma was 1 ng/mL, and the upper limit of quantitation (ULOQ) in plasma was 3000 ng/mL. The plasma concentration of test article in rats was subjected to a non compartmental pharmacokinetic analysis by using the Phoenix WinNonlin software (version 6.3, Pharsight, Mountain View, Calif.). The linear/log trapezoidal rule was applied in obtaining the PK parameters.

Sequence of CYP1A2 (P05177 whole entry): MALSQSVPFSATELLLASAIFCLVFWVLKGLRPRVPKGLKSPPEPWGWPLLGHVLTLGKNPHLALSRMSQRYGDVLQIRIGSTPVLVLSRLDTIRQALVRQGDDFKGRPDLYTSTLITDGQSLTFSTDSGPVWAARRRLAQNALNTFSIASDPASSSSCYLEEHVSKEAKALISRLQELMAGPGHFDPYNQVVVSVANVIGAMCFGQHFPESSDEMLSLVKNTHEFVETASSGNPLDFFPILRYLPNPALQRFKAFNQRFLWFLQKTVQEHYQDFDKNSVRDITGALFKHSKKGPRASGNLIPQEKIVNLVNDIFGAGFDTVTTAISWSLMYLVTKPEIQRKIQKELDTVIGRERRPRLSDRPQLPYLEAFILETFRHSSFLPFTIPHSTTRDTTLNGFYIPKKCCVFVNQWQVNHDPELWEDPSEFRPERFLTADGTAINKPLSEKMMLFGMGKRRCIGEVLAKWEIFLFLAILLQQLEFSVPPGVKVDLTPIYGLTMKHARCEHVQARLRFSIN

Compound	IC50 [1] [µM]	inhibition at 1 µM [2] [%]	inhibition at 1 µM [3] [%]	clearance [4] [mL/min/kg]	half-life [4] [h]
Cc1cc(C(F)(F)F)ccc1-c1ccc2nnc(C(F)(F)F)n2n1 [Compound 3]	1 to 15	> 70	> 50	6	6.7
FC(F)(F)Cc1nnc2ccc(-c3ccc(OC(F)(F)F)cc3)nn12 [Compound 6]	1 to 15	30 to 70	> 50	9.2	3.2
N#CC1(c2ccc(-c3ccc4nnc(C(F)(F)F)n4n3)cc2)CC1 [Compound 12]	1 to 15	> 70	> 50	5.1	1.4
COc1cc(OC(F)(F)F)ccc1-c1ccc2nnc(C(F)F)n2n1 [Compound 16]	–	> 70	> 50	52.3	0.49
COc1cc(C2(C#N)CC2)ccc1-c1ccc2nnc(C(F)(F)F)n2n1 [Compound 22]	–	> 70	> 50	16.6	0.6
Fc1cc(OC(F)(F)F)ccc1-c1ccc2nnc(C(F)(F)F)n2n1 [Compound 23]	–	> 70	> 50	1.4	21.9
FC(F)(F)COc1ccc(-c2ccc3nnc(C(F)(F)F)n3n2)cn1 [Compound 30]	15 to 30	> 70	> 50	29	0.36
Fc1cc(-c2ccc3nnc(C(F)(F)F)n3n2)ccc1OC(F)(F)F [Compound 31]	–	> 70	> 50	2	15.4
